Measurements as given in US7709497B2, “Pyrazolo[3,4-b]pyridine compound, and its use as a PDE4 inhibitor” (Glaxo Group Limited, priority 2004, dated 2010).

Assays:
[1] = target: PDE4D (human recombinant) (Homo sapiens, UniProt Q08499); test: PDE4D inhibition, IMAP Fluorescence Polarisation (FP) assay; assay type: biochemical; settings: n = 2; accuracy ±about 0.5 log unit; read-out: PDE4D pIC50 (FP assay, mean value) (converted)
Excerpt: Human recombinant PDE4D (HSPDE4D3A) is disclosed in P. A. Baecker et al., “Isolation of a cDNA encoding a human rolipram-sensitive cyclic AMP phoshodiesterase (PDE IVD)”, Gene, 1994, 138, 253-256.
The ability of compounds to inhibit catalytic activity at PDE4B (human recombinant) or PDE4D (human recombinant) can optionally be determined by IMAP Fluorescence Polarisation (FP) assay (IMAP Explorer kit, available from Molecular Devices Corporation, Sunnydale, Calif., USA; Molecular Devices code: R8062) in a 384-well format.
The IMAP FP assay is able to measure PDE activity in an homogenous, non-radioactive assay format. […] Binding of Fl-AMP product to the beads (coated with the immobilised trivalent cations) slows the rotation of the bound Fl-AMP and leads to an increase in the fluorescence polarisation ratio of parallel to perpendicular light. […]
Test compounds (small volume, e.g. ca. 0.5 to 1 microliters (ul), preferably ca. 0.5 ul, of solution in DMSO) are preincubated at ambient temperature (room temperature, e.g. 19-23° C.) in black 384-well microtitre plates (supplier: NUNC, code 262260) with PDE enzyme in 10 mM Tris-HCl buffer pH 7.2, 10 mM MgCl2, 0.1% (w/v) bovine serum albumin, and 0.05% NaN3 for 10-30 minutes. […] The Fluorescence Polarisation (FP) ratio of parallel to perpendicular light is measured using an Analyst™ plate reader (from Molecular Devices Corporation). […]

[2] = target: PDE5 (human recombinant) (Homo sapiens, UniProt O76074); test: PDE5 inhibition (SPA or modified FP assay); assay type: biochemical; settings: n = 1; accuracy ±about 0.5 log unit; read-out: PDE5 pIC50 (converted)
Excerpt: Human recombinant PDE5 is disclosed in K. Loughney et al., “Isolation and characterisation of cDNAs encoding PDE5A, a human cGMP-binding, cGMP-specific 3′,5′-cyclic nucleotide phosphodiesterase”, Gene, 1998, 216, 139-147.
The ability of compounds to inhibit catalytic activity at PDE4B or 4D (human recombinant), PDE3 (from bovine aorta), PDE5 (human recombinant) or PDE6 (from bovine retina) can optionally be determined by Scintillation Proximity Assay (SPA) in a 96-well format.
Test compounds (as a solution in DMSO, preferably about 2 microliters (ul) volume of DMSO solution) are preincubated at ambient temperature (room temperature, e.g. 19-23° C.) in Wallac Isoplates (code 1450-514) with PDE enzyme in 50 mM Tris-HCl buffer pH 7.5, 8.3 mM MgCl2, 1.7 mM EGTA, 0.05% (w/v) bovine serum albumin for 10-30 minutes (usually 30 minutes). The enzyme concentration is adjusted so that no more than 20% hydrolysis of the substrate defined below occurs in control wells without compound, during the incubation. […] Bound radioactive product is measured using a WALLAC TRILUX 1450 Microbeta scintillation counter. […] Curves are analysed using ActivityBase and XLfit (ID Business Solutions Limited, 2 Ocean Court, Surrey Research Park, Guildford, Surrey GU2 7QB, United Kingdom) Results are expressed as pIC50 values. […]

PDE4D (human recombinant), sequence (Q08499 1-673 isoform Q08499-2): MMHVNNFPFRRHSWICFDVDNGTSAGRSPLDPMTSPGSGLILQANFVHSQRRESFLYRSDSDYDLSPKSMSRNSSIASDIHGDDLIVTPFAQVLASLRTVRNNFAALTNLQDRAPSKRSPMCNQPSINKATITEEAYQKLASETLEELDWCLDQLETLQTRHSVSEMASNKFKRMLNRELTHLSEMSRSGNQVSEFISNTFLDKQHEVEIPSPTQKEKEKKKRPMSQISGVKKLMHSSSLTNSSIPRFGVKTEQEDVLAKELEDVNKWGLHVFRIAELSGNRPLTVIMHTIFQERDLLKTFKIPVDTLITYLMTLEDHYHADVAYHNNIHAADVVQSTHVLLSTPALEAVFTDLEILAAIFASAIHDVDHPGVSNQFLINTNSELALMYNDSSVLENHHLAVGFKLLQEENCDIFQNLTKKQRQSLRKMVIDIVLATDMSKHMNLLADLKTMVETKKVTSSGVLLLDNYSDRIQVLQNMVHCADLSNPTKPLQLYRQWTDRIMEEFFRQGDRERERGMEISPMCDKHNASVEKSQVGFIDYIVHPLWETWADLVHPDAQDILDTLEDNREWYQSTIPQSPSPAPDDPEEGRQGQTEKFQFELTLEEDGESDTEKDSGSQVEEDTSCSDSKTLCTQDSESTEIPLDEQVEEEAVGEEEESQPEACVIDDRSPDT

IC50 [1]: 0.55 nM | IC50 [2]: 490 nM
SMILES: CCn1ncc2c(NC3CCN(C(N)=O)CC3)c(C(=O)NCc3ccc(C)c(C)c3)cnc21 [compound of formula (I), 4-{[1-(aminocarbonyl)-4-piperidinyl]amino}-N-[(3,4-dimethylphenyl)methyl]-1-ethyl-1H-pyrazolo[3,4-b]pyridine-5-carboxamide]
